Experimental data from US20070265164A1, “Active Substances for Increasing Pathogenic Defense in Plants and Methods for the Detection Thereof” (Bayer Cropscience GmbH, priority 2004, published 2007).

What was measured:
Format in all cases: in vivo
Set-up in all cases: fold induction: dose or concentration left out as unconfirmed
[1] = system: Contig5146_at, Probable 12-oxophytodienoate reductase (EC 1.3.1.42); assay: GEP, barley DNA chip, probe set 1.4; conditions: Hordeum vulgare, topical; barley leaves 6 h after spray application; rates of Table 1 (S7 500); median induction factor vs control; read-out: Expression value, 1.4 Contig5146_at
Experimental: (§1) Barley plants (cv. Baronesse) were grown in compost-filled pots (diameter: 10 cm) for 10 days in a controlled-environment cabinet under defined light, humidity and temperature conditions (white light, 70% atmospheric humidity, 24° C.). At the time of spray application, the seedlings were approximately 15 cm in size. The test substances selected in this example were molecules which differ markedly in their structure and which have a well documented pronounced safener effect, and other molecules which are known from the literature to have an effect on plant stress and pathogen tolerance (Table 1). The substances were prepared as stock solutions in DMSO (dimethyl sulfoxide) at c=10 mg/ml). This was used for preparing dilutions in water supplemented with 0.2% Agrotin (comprises polyvinyl alcohol, silicones, polysaccharides and pH regulators, manufacturer: Bayer CropScience AG, Monheim, Germany), as wetter, to give the application rates shown in the table. The amount of liquid for the spray application was 800 μl per pot, corresponding to 800 l/ha. For each 800 μl of spray mixture, 16 μl of EC premix: diacetone alcohol=1:6 were additionally added as formulation auxiliaries. The substances listed in Table 1 were applied to the leaves by means of a pneumatic spray pistol. Each substance was sprayed as 2 dosages, and all experiments were carried out as replicates (2 pots per substance). Sprayings with blank formulation without active ingredient were carried out as controls. After 6 hours, the leaves were harvested, frozen in liquid nitrogen and stored at −80° C. until further use. The labeled RNA probes for the DNA chip hybridization were prepared as described in the protocols (Expression Analysis, Technical Manual) from Affymetrix (Affymetrix Inc., 3380 Central Expressway, Santa Clara, Calif., USA). First, total RNA was isolated from in each case 500 mg of the harvested leaves. In each case 10 μg of total RNA was used for the first-strand and second-strand cDNA synthesis. The cDNA was amplified with T7 polymerase and simultaneously labeled with biotin-UTP. In each case, 20 μg of this biotinylated cDNA was employed for the hybridization of the barley genome array (Gene Chip Barleyl, order No.: 511012) from Affymetrix. This DNA microarray comprises DNA sequences of 22 840 genes which are composed of a total of 400 000 EST sequences. Thereafter, the DNA microarrays were washed in the Affymetrix Fluidics Station, stained with streptavidin/phycoerythrin (Molecular Probes, P/N S-866) and scanned with the matching Agilent Laser Scanner (Agilent Gene Array Scanner). The fluorescent data obtained were analyzed with the software Microarray Suite 5 from Affymetrix. After the quality had been checked, all DNA chip analyses were stored in a database. To determine the relative expression values for genes (induction factors, repression factors), test and control chips were compared with each other, and the scoring function set by the Affymetrix software was used as the basis. The 2 biological replications of one experiment were compared in each case with 2 control chips (blank formulation), and the 4 expression values obtained for each gene were used for calculating the median. These medians are shown in the results tables as induction factors. Similarity comparisons of expression profiles from different experiments and cluster analyses were carried out using the software GeneMaths 1.5 from Applied Maths (Applied Maths, Keistraat 120, 9830 Sint-Martens-Latem, Belgium).
(§2) Gene groups from specific metabolic pathways and signal transduction chains were put together by key word search in the annotations, of the genes, which were also provided by Affymetrix, and by Blast analyses (homology comparisons) of the DNA target sequences, i.e. of the positive sequence (identified on the basis of a modified expression profile) identified on the DNA chip, using gene sequences from other organisms, preferably plant organisms, with characterized functions. […]

[2] = system: Contig6194_a_at, 12-oxophytodienoic acid reductase; assay: GEP, barley DNA chip, probe set 1.7; conditions: Hordeum vulgare, topical; barley leaves 6 h after spray application; rates of Table 1 (S7 500); median induction factor vs control; read-out: Expression value, 1.7 Contig6194_a_at
Experimental: as §1, §2

[3] = system: Contig12574_at, Putative lipoxygenase; assay: GEP, barley DNA chip, probe set 1.11; conditions: Hordeum vulgare; barley leaves 6 h after spray application; rates of Table 1 (S7 500); median induction factor vs control; read-out: Expression value, 1.11 Contig12574_at
Experimental: as §1, §2

[4] = system: Contig3096_s_at, Allene oxide synthase; assay: GEP, barley DNA chip, probe set 1.16; conditions: Hordeum vulgare, topical; barley leaves 6 h after spray application; rates of Table 1 (S7 500); median induction factor vs control; read-out: Expression value, 1.16 Contig3096_s_at
Experimental: as §1, §2

[5] = system: Contig13413_at, Similar to lipases; assay: GEP, barley DNA chip, probe set 1.17; conditions: Hordeum vulgare, topical; barley leaves 6 h after spray application; rates of Table 1 (S7 500); median induction factor vs control; read-out: Expression value, 1.17 Contig13413_at
Experimental: as §1, §2

[6] = system: Contig2326_s_at, 12-oxophytodienoic acid reductase; assay: GEP, barley DNA chip, probe set 1.18; conditions: Hordeum vulgare, topical; barley leaves 6 h after spray application; rates of Table 1 (S7 500); median induction factor vs control; read-out: Expression value, 1.18 Contig2326_s_at
Experimental: as §1, §2

[7] = system: Contig34_s_at, Putative proteinase inhibitor; assay: GEP, barley DNA chip, probe set 2.2; conditions: Hordeum vulgare, topical; barley leaves 6 h after spray application; rates of Table 1 (S7 500); median induction factor vs control; read-out: Expression value, 2.2 Contig34_s_at
Experimental: as §1, §2

[8] = system: HD07M22r_s_at, Proteinase-Inhibitor (pir S71555, barley); assay: GEP, barley DNA chip, probe set 2.4; conditions: Hordeum vulgare, topical; barley leaves 6 h after spray application; rates of Table 1 (S7 500); median induction factor vs control; read-out: Expression value, 2.4 HD07M22r_s_at
Experimental: as §1, §2

[9] = system: Contig5607_s_at, Pathogen-related protein (PirT06168); assay: GEP, barley DNA chip, probe set 4.3; conditions: Hordeum vulgare, topical; barley leaves 6 h after spray application; rates of Table 1 (S7 500); median induction factor vs control; read-out: Expression value, 4.3 Contig5607_s_at
Experimental: as §1, §2

[10] = system: Contig2990_at, Chitinase (EC 3.2.1.14); assay: GEP, barley DNA chip, probe set 5.1; conditions: Hordeum vulgare, topical; barley leaves 6 h after spray application; rates of Table 1 (S7 500); median induction factor vs control; read-out: Expression value, 5.1 Contig2990_at
Experimental: as §1, §2

[11] = system: Contig2992_s_at, Chitinase (EC 3.2.1.14); assay: GEP, barley DNA chip, probe set 5.2; conditions: Hordeum vulgare, topical; barley leaves 6 h after spray application; rates of Table 1 (S7 500); median induction factor vs control; read-out: Expression value, 5.2 Contig2992_s_at
Experimental: as §1, §2

[12] = system: Contig5023_at, Class III chitinase; assay: GEP, barley DNA chip, probe set 5.3; conditions: Hordeum vulgare, topical; barley leaves 6 h after spray application; rates of Table 1 (S7 500); median induction factor vs control; read-out: Expression value, 5.3 Contig5023_at
Experimental: as §1, §2

Q: With `CSC(=O)c1cccc2nnsc12` [S8, Acibenzolar-S-methyl] as the compound, how does the fold induction [1] read?
A: 1

Q: What about the fold induction [2] of the same compound?
A: 1

Q: And the fold induction [3]?
A: 2.11

Q: What about the fold induction [4] of the same compound?
A: 2.68

Q: What about the fold induction [5] of the same compound?
A: 2.17

Q: And the fold induction [6]?
A: 1

Q: And the fold induction [7]?
A: 3.68

Q: And the fold induction [8]?
A: 1

Q: What about the fold induction [9] of the same compound?
A: 1

Q: And the fold induction [10]?
A: 1

Q: What about the fold induction [11] of the same compound?
A: 1

Q: And the fold induction [12]?
A: 1
